≈ marks a conversion by molar mass, not a printed value. Square brackets hold non-standard residues; d marks the D form. Peptide text beside a SMILES is read from it. Orn = NCCC[C@H](N)C(=O)O
Experiments:
[1] = system: Absidia corymbifera NRRL 6251; format: cell-based; settings: NRRL 6251, 24 h
Procedure: (§1) Assays were performed by Trideum Biosciences (Frederick, MD, USA). Isolates were thawed from −80 °C storage and sub-cultured on trypticase soy agar plates at 37 °C prior to experimentation. A single colony was aseptically picked from the agar plate and released in 30 mL trypticase soy broth and incubated overnight at 37 °C incubator. Following which the bacterial culture was diluted to approximately 10^6 colony forming units (CFU)/mL using 2X cation adjusted Mueller–Hinton broth and added to the dAMP solutions (0, 2, 4, 8, 16, 32, 64, and 128 μg/mL) which had been formulated in water at 256 μg/mL and then serially diluted in media on 96-well pates. For fungal evaluation, potato dextrose broth and potato dextrose agar plates were used. The treated cultures were then incubated for 24 h at 37 °C and pathogen growth was measured by absorbance at 600 nm. Four replicas were included for each dAMP concentration. Each MIC was assigned to the lowest test agent concentration resulting in at least three out of four wells showing no growth based on an optical density (OD) reading of <0.1.

[2] = system: Aspergillus flavus MYA-1004; format: cell-based; settings: 24 h
Procedure: as §1

[3] = system: Aspergillus flavus MYA-3651; format: cell-based; settings: 24 h
Procedure: as §1

[4] = system: Aspergillus fumigatus 9648; format: cell-based; settings: 9648, 24 h
Procedure: as §1

[5] = system: Aspergillus fumigatus 9651; format: cell-based; settings: 9651, 24 h
Procedure: as §1

Candida albicans Y-326 = format: cell-based; settings: Y-326, 24 h
Procedure: as §1

Candida albicans Y-6359 = format: cell-based; settings: Y-6359, 24 h
Procedure: as §1

Candida krusei Y-27803 = format: cell-based; settings: Y-27803, 24 h
Procedure: as §1

Candida krusei Y-27825 = format: cell-based; settings: Y-27825, 24 h
Procedure: as §1

[6] = system: Candida parapsilosis Y-1761; format: cell-based; settings: Y-1761, 24 h
Procedure: as §1

[7] = system: Candida parapsilosis Y-1763; format: cell-based; settings: Y-1763, 24 h
Procedure: as §1

E. cloacae 6053 = format: cell-based; settings: 6053, 24 h
Procedure: as §1

E. cloacae 6054 = format: cell-based; settings: 6054, 24 h
Procedure: as §1

[8] = system: Fusarium solani NRRL 28548; format: cell-based; settings: NRRL 28548, 24 h
Procedure: as §1

[9] = system: Mucor circinelloides NRRL 3631; format: cell-based; settings: NRRL 3631, 24 h
Procedure: as §1

S. epidermis ATCC 51625 = format: cell-based; settings: ATCC 51625, 24 h
Procedure: as §1

A. baumannii 6043 = format: cell-based, Acinetobacter baumannii; settings: 6043, 24 h
Procedure: as §1

A. baumannii 6838 = format: cell-based, Acinetobacter baumannii; settings: 6838, 24 h
Procedure: as §1

A. baumannii ATCC 17978 = format: cell-based, Acinetobacter baumannii; settings: ATCC 17978, 24 h
Procedure: as §1

K. pneumonia 6069 = format: cell-based, Klebsiella pneumoniae; settings: 24 h
Procedure: as §1

K. pneumonia ATCC 10031 = format: cell-based, Klebsiella pneumoniae; settings: ATCC 10031, 24 h
Procedure: as §1

P. aeruginosa 6186 = format: cell-based, Pseudomonas aeruginosa; settings: 6186, 24 h
Procedure: as §1

P. aeruginosa ATCC 19660 = format: cell-based, Pseudomonas aeruginosa; settings: ATCC 19660, 24 h
Procedure: as §1

P. aeruginosa ATCC 27853 = format: cell-based, Pseudomonas aeruginosa; settings: ATCC 27853, 24 h
Procedure: as §1

MRSA 6313 = format: cell-based, Staphylococcus aureus; settings: 6313, 24 h
Procedure: as §1

MRSA 6381 = format: cell-based, Staphylococcus aureus; settings: 6381, 24 h
Procedure: as §1

MRSA ATCC 33592 = format: cell-based, Staphylococcus aureus; settings: ATCC 33592, 24 h
Procedure: as §1

S. aureus 6061 = format: cell-based, Staphylococcus aureus; settings: 6061, 24 h
Procedure: as §1

S. aureus B-767 = format: cell-based, Staphylococcus aureus; settings: B-767, 24 h
Procedure: as §1

[10] = system: P. aeruginosa 19660 (Xen5 luciferase); assay: Bioluminescent time-kill assay; format: cell-based, Pseudomonas aeruginosa; settings: 8 μg/mL; RP553 at 60 min; bioluminescence
Text: (§2) Fungal and bacterial strains were obtained from American Type Culture Collection (ATCC, Manassas, VA, USA) or the clinical isolate collection at Trideum Biosciences (Frederick, MD, USA) and are presented in Table 1 and Table 2, respectively. Bioluminescence strains of P. aeruginosa 19660, transfected with the Xen5 luciferase gene, and S. aureus ATCC R 49525TM (Wright), transfected with the Xen36 luciferase gene, were obtained from Perkin Elmer (Waltham, MA, USA).
(§3) Real-time killing of bacterial cells, P. aeruginosa or S. aureus, and mammalian cytotoxicity to assess dAMP off-target toxicity was evaluated using bioluminescent cells. The L929 fibroblast cells (ATCC, Manassas, VA, USA) were made bioluminescent by transfection with a luciferase gene. Cells (1 × 10^4 cells, 100 μL) were plated in 96-well black-walled plates and the candidate dAMPs were 2-fold serially diluted from specified concentrations in growth medium supplemented with 150 μg/mL D-luciferin. Each concentration was performed in triplicate, with the final volume being 200 μL. Imaging was performed at select times after the addition of the dAMP, and compared to concurrently run vehicle-control, using an IVIS Lumina imaging system (Caliper Life Sciences, Inc., Hopkinton, MA, USA). For imaging, the 96-well plate was positioned on the stage (12.5-cm field of view), with an open emission filter, binning of 4, and f-stop 1 and a 1-min exposure time. Monitoring bioluminescence allows assessment of the kinetics of cellular viability as there is a tight correlation between the bioluminescent signal and cell viability. Data analysis was performed using the Living Image software program (version 4.3, Caliper Life Sciences, Inc., Hopkinton, MA, USA).
(§4) Figure 3 RP553, RP556, RP557 rapidly destroy P. aeruginosa and S. aureus. The bioluminescence of viable P. aeruginosa 19,660 and S. aureus 49,525 cells was quantitated in real time with an IVIS Lumina bioimaging system. Data represent the mean ± SE of triplicate replicates from two independent experiments. For some points, the error bars are shorter than the height of the symbols.

[11] = system: S. aureus 49525 (Xen36 luciferase); format: cell-based, Staphylococcus aureus; settings: 8 μg/mL, 60 min incubation, bioluminescence, triplicates from two independent experiments
Text: as §2, §3, §4

[12] = system: vulvovaginal candidiasis infection; settings: rodent vulvovaginal candidiasis, after three days of daily treatment; cited from earlier work
Text: The dAMPs RP504, RP554 and RP557 were thus tested for their ability to treat a rodent vulvovaginal candidiasis infection. […] A daily dose with a 2% concentration lowered the CFU/sample by more than 4 logs compared to the con ...

Row | SMILES | MIC against Absidia corymbifera NRRL 6251 [1] [µg/mL] | MIC against Aspergillus flavus MYA-1004 [2] [µg/mL] | MIC against Aspergillus flavus MYA-3651 [3] [µg/mL] | MIC against Aspergillus fumigatus 9648 [4] [µg/mL] | MIC against Aspergillus fumigatus 9651 [5] [µg/mL] | MIC against Candida albicans Y-326 (Candida albicans Y-326) [µg/mL] | MIC against Candida albicans Y-6359 (Candida albicans Y-6359) [µg/mL] | MIC against Candida krusei Y-27803 (Candida krusei Y-27803) [µg/mL] | MIC against Candida krusei Y-27825 (Candida krusei Y-27825) [µg/mL] | MIC against Candida parapsilosis Y-1761 [6] [µg/mL] | MIC against Candida parapsilosis Y-1763 [7] [µg/mL] | MIC against E. cloacae 6053 (E. cloacae 6053) [µg/mL] | MIC against E. cloacae 6054 (E. cloacae 6054) [µg/mL] | MIC against Fusarium solani NRRL 28548 [8] [µg/mL] | MIC against Mucor circinelloides NRRL 3631 [9] [µg/mL] | MIC against S. epidermis ATCC 51625 (S. epidermis ATCC 51625) [µg/mL] | MIC against A. baumannii 6043 (A. baumannii 6043) [µg/mL] | MIC against A. baumannii 6838 (A. baumannii 6838) [µg/mL] | MIC against A. baumannii ATCC 17978 (A. baumannii ATCC 17978) [µg/mL] | MIC against K. pneumonia 6069 (K. pneumonia 6069) [µg/mL] | also measured
1 | CC[C@H](C)[C@H](NC(=O)[C@H](CCCCN)NC(=O)[C@H](CC(C)C)NC(=O)[C@H](CCCN)NC(=O)[C@H](CC(C)C)NC(=O)[C@H](CCCNC(=N)N)NC(=O)[C@H](C)NC(=O)[C@H](CCCNC(=N)N)NC(=O)[C@@H](NC(=O)[C@H](CCCN)NC(=O)[C@H](Cc1ccccc1)NC(=O)[C@H](CCCNC(=N)N)NC(=O)[C@H](C)NC(=O)[C@H](CCCCN)NC(=O)[C@@H](NC(=O)[C@H](CCCN)NC(=O)[C@@H](N)Cc1ccccc1)[C@@H](C)CC)C(C)C)C(N)=O [RP553] (H-F[Orn]IKARF[Orn]VRARL[Orn]LKI-NH2) | 2 (≈ 0.965 µM) | 128 (≈ 61.8 µM) | 128 (≈ 61.8 µM) | 128 (≈ 61.8 µM) | 64 (≈ 30.9 µM) | 64 (≈ 30.9 µM) | 64 (≈ 30.9 µM) | 32 (≈ 15.4 µM) | 32 (≈ 15.4 µM) | 64 (≈ 30.9 µM) | 32 (≈ 15.4 µM) | 4 (≈ 1.93 µM) | 2 (≈ 0.965 µM) | 2 (≈ 0.965 µM) | 64 (≈ 30.9 µM) | 2 (≈ 0.965 µM) | 16 (≈ 7.72 µM) | 8 (≈ 3.86 µM) | 4 (≈ 1.93 µM) | 4 (≈ 1.93 µM) | MIC against K. pneumonia ATCC 10031 (K. pneumonia ATCC 10031): 4 µg/mL (≈ 1.93 µM); MIC against P. aeruginosa 6186 (P. aeruginosa 6186): 8 µg/mL (≈ 3.86 µM); MIC against P. aeruginosa ATCC 19660 (P. aeruginosa ATCC 19660): 8 µg/mL (≈ 3.86 µM); MIC against P. aeruginosa ATCC 27853 (P. aeruginosa ATCC 27853): 4 µg/mL (≈ 1.93 µM); MIC against MRSA 6313 (MRSA 6313): 4 µg/mL (≈ 1.93 µM); MIC against MRSA 6381 (MRSA 6381): 8 µg/mL (≈ 3.86 µM); MIC against MRSA ATCC 33592 (MRSA ATCC 33592): 4 µg/mL (≈ 1.93 µM); MIC against S. aureus 6061 (S. aureus 6061): 8 µg/mL (≈ 3.86 µM); MIC against S. aureus B-767 (S. aureus B-767): 4 µg/mL (≈ 1.93 µM); P. aeruginosa killing (in words) [10]: nearly all; S. aureus killing [11]: 14%
2 | CC[C@H](C)[C@H](NC(=O)[C@H](CCCN)NC(=O)[C@H](C)NC(=O)[C@H](CCCN)NC(=O)[C@H](CC(C)C)NC(=O)[C@H](CCCN)NC(=O)[C@@H](NC(=O)[C@H](CCCN)NC(=O)[C@@H](NC(=O)[C@H](CCCN)NC(=O)[C@H](C)NC(=O)[C@H](CCCN)NC(=O)[C@H](CC(C)C)NC(=O)[C@H](CCCN)NC(=O)[C@@H](N)Cc1ccccc1)[C@@H](C)CC)C(C)C)C(=O)N[C@@H](CCCN)C(=O)N[C@@H](CC(C)C)C(N)=O [RP554] (H-F[Orn]L[Orn]A[Orn]I[Orn]V[Orn]L[Orn]A[Orn]I[Orn]L-NH2) | 4 (≈ 2.12 µM) | 64 (≈ 34 µM) | 32 (≈ 17 µM) | 64 (≈ 34 µM) | 32 (≈ 17 µM) | 32 (≈ 17 µM) | 32 (≈ 17 µM) | 16 (≈ 8.49 µM) | 16 (≈ 8.49 µM) | 16 (≈ 8.49 µM) | 8 (≈ 4.25 µM) | 4 (≈ 2.12 µM) | 2 (≈ 1.06 µM) | 2 (≈ 1.06 µM) | 32 (≈ 17 µM) | 2 (≈ 1.06 µM) | 8 (≈ 4.25 µM) | 4 (≈ 2.12 µM) | 4 (≈ 2.12 µM) | 16 (≈ 8.49 µM) | MIC against K. pneumonia ATCC 10031 (K. pneumonia ATCC 10031): 8 µg/mL (≈ 4.25 µM); MIC against P. aeruginosa 6186 (P. aeruginosa 6186): 8 µg/mL (≈ 4.25 µM); MIC against P. aeruginosa ATCC 19660 (P. aeruginosa ATCC 19660): 8 µg/mL (≈ 4.25 µM); MIC against P. aeruginosa ATCC 27853 (P. aeruginosa ATCC 27853): 4 µg/mL (≈ 2.12 µM); MIC against MRSA 6313 (MRSA 6313): 32 µg/mL (≈ 17 µM); MIC against MRSA 6381 (MRSA 6381): 32 µg/mL (≈ 17 µM); MIC against MRSA ATCC 33592 (MRSA ATCC 33592): 32 µg/mL (≈ 17 µM); MIC against S. aureus 6061 (S. aureus 6061): 32 µg/mL (≈ 17 µM); MIC against S. aureus B-767 (S. aureus B-767): 4 µg/mL (≈ 2.12 µM); reduction of CFU/tissue sample [12]: ≥ 2.5 logs
